Converted amounts (≈) assume the structure as drawn. Like-named read-outs stand apart in the source and are kept apart here.
Columns and labels:
Propionibacterium acnes [1] = conditions: by Bryskier; cited from earlier work
S. aureus ATCC 25923 = conditions: by Bryskier; cited from earlier work
Escherichia coli B 1218 = conditions: cited from earlier work
[2] = tested on: Enterobacter cloacae B 520; conditions: cited from earlier work
[3] = tested on: Staphylococcus aureus, methicillin susceptible; assay: Standard microdilution susceptibility test, clinical isolates; format: cell-based; conditions: for MIC50 / MIC90: Staphylococcus aureus
[4] = tested on: Coagulase-negative Staphylococus sp., methicillin susceptible; assay: as above; format: cell-based
[5] = tested on: Staphylococcus aureus, methicillin resistant; assay: as above; format: cell-based; conditions: for MIC50 / MIC90: Staphylococcus aureus
[6] = tested on: Streptococcus simulans 7866; conditions: cited from earlier work
Diphteroides 8264 = conditions: cited from earlier work
[7] = tested on: Bacillus subtilis ATCC 6633; conditions: cited from earlier work
[8] = tested on: Staphylococcus hominis 7835; conditions: cited from earlier work
[9] = tested on: Enterococcus sp., vancomycin susceptible; assay: Standard microdilution susceptibility test, clinical isolates; format: cell-based; conditions: for MIC50 / MIC90: Enterococcus
B. subtilis ATCC 6633 = conditions: by Bryskier; cited from earlier work
Enterobacter cloacae = conditions: by Bryskier; cited from earlier work
Propionibacterium acnes [10] = conditions: cited from earlier work
[11] = tested on: Staphylococcus epidermidis; conditions: by Bryskier; cited from earlier work
Staphylococcus capitis = conditions: cited from earlier work
[12] = tested on: Staphylococcus saprophyticus 8454; conditions: cited from earlier work
Escherichia coli = conditions: by Bryskier; cited from earlier work
[13] = tested on: Streptococcus pneumoniae, penicillin resistant; assay: Standard microdilution susceptibility test, clinical isolates; format: cell-based; conditions: for MIC50 / MIC90: Streptococcus pneumoniae
S. pyogenes = conditions: by Bryskier; cited from earlier work
Streptococcus mitis = conditions: by Bryskier; cited from earlier work
Micrococcus spp. = conditions: cited from earlier work
Coryneform(s) = conditions: by Bryskier; cited from earlier work
[14] = tested on: Coagulase-negative Staphylococus sp., methicillin resistant; assay: Standard microdilution susceptibility test, clinical isolates; format: cell-based
[15] = tested on: Staphylococcus aureus ATCC 25923; conditions: cited from earlier work
Streptococcus mitis 5728 = conditions: cited from earlier work
[16] = tested on: Streptococcus pneumoniae, penicillin susceptible; assay: Standard microdilution susceptibility test, clinical isolates; format: cell-based; conditions: for MIC50 / MIC90: Streptococcus pneumoniae
[17] = tested on: Staphylococcus aureus 7503; conditions: cited from earlier work
Micrococcus = conditions: by Bryskier; cited from earlier work
S. aureus = conditions: by Bryskier; cited from earlier work
[18] = tested on: Serotype β Streptococcus 8252; conditions: cited from earlier work
[19] = tested on: Streptococcus viridans sp.; assay: Standard microdilution susceptibility test, clinical isolates; format: cell-based; conditions: for MIC50 / MIC90: Streptococcus viridans
[20] = tested on: Staphylococcus epidermidis 7586; conditions: cited from earlier work
[21] = tested on: Enterococcus sp., decreased vancomycin susceptibility; assay: Standard microdilution susceptibility test, clinical isolates; format: cell-based; conditions: 5 clinical isolates
E. casseliflavus = assay: Microdilution MIC, Enterococcus isolates with van resistance genes; format: cell-based; conditions: Enterococcus casseliflavus
Description: Identification and characterization of resistance patterns of these bacteria were performed by standard methods.
When forming the test groups we attached great importance to the increasing incidence of drug-resistant microbes causing therapeutic problems. Most important of them are methicillin-resistant Staphylococcus aureus (MRSA), methicillin-resistant coagulase-negative Staphylococcus spp. (MRCoNS), penicillin-resistant Streptococcus pneumoniae (pneumococcus), vancomycin-resistant Enterococcus spp. (VRE). Pneumococcus isolates represented various serotypes, VRE isolates belonged to various species. Moreover, vancomycin-resistance of VRE isolates was based on different genetic backgrounds. Antibiotic-resistant strains were also represented among international reference strains, for example methicillin-resistant Staphylococcus aureus ATCC 43300 (MRSA), Staphylococcus aureus with decreased vancomycin susceptibility ATCC 700698 and 700699 (vancomycin intermediate Staphylococcus aureus—VISA), mupirocin-resistant Staphylococcus aureus ATCC BAA1708 and vancomycin-resistant Enterococcus faecalis ATCC 51299 (VRE).
Susceptibility tests were performed according to the standard microdilution method (NCCLS (CLSI) M7-A7).
The lowest concentration at which no bacterial growth was observed after the incubation period is the Minimal Inhibitory Concentration (MIC). The MIC value is inversely proportional to the antimicrobial efficacy. MIC values of antimicrobial agents can differ by species or even by bacterial strains within species.

[22] = 10 clinical isolates, read-out: MIC 50%
[23] = 10 clinical isolates, read-out: MIC 90%
[24] = 20 clinical isolates, read-out: MIC 50%
[25] = 20 clinical isolates, read-out: MIC 90%

CC[C@H]1OC(=O)[C@H](C)[C@@H](O[C@H]2C[C@@](C)(OC)[C@@H](O)[C@H](C)O2)[C@H](C)[C@@H](O[C@@H]2O[C@H](C)C[C@H](N(C)C)[C@H]2O)[C@](C)(O)C[C@@H](C)C(=O)[C@H](C)[C@@H](O)[C@]1(C)O [Erythromycin]
MIC (Propionibacterium acnes [1]): <0.5 µg/mL
MIC (S. aureus ATCC 25923): 1.0 µg/mL (≈ 1.36 µM)
MIC (Escherichia coli B 1218): 62.5 µg/mL (≈ 85.2 µM)
MIC [2]: 250 µg/mL (≈ 341 µM)
MIC50 [3, 22]: 0.125 µg/mL (≈ 0.17 µM)
MIC90 [3, 23]: > 16 µg/mL
MIC50 [4, 22]: 0.125 µg/mL (≈ 0.17 µM)
MIC90 [4, 23]: > 16 µg/mL
MIC50 [5, 22]: > 16 µg/mL
MIC90 [5, 23]: > 16 µg/mL
MIC [6]: 7.8 µg/mL (≈ 10.6 µM)
MIC (Diphteroides 8264): >250 µg/mL
MIC [7]: <0.5 µg/mL
MIC [8]: 250 µg/mL (≈ 341 µM)
MIC50 [9, 24]: 1 µg/mL (≈ 1.36 µM)
MIC90 [9, 25]: > 16 µg/mL
MIC (B. subtilis ATCC 6633): <0.5 µg/mL
MIC (Enterobacter cloacae): 250 µg/mL (≈ 341 µM)
MIC (Propionibacterium acnes [10]): <0.5 µg/mL
MIC [11]: <0.5 µg/mL
MIC (Staphylococcus capitis): <0.5 µg/mL
MIC [12]: 1.0 µg/mL (≈ 1.36 µM)
MIC (Escherichia coli): 62.5 µg/mL (≈ 85.2 µM)
MIC50 [13, 22]: 2 µg/mL (≈ 2.73 µM)
MIC90 [13, 23]: > 16 µg/mL
MIC (S. pyogenes): 0.5 µg/mL (≈ 0.681 µM)
MIC (Streptococcus mitis): 250 µg/mL (≈ 341 µM)
MIC (Micrococcus spp.): <0.5 µg/mL
MIC (Coryneform(s)): >250 µg/mL
MIC50 [14, 22]: 0.25 µg/mL (≈ 0.341 µM)
MIC90 [14, 23]: > 16 µg/mL
MIC [15]: 1.0 µg/mL (≈ 1.36 µM)
MIC (Streptococcus mitis 5728): 250 µg/mL (≈ 341 µM)
MIC50 [16, 22]: 0.03 µg/mL (≈ 0.0409 µM)
MIC90 [16, 23]: 0.03 µg/mL (≈ 0.0409 µM)
MIC [17]: >250 µg/mL
MIC (Micrococcus): <0.5 µg/mL
MIC (S. aureus): >250 µg/mL
MIC [18]: 0.5 µg/mL (≈ 0.681 µM)
MIC50 [19, 24]: 1 µg/mL (≈ 1.36 µM)
MIC90 [19, 25]: > 16 µg/mL
MIC [20]: <0.5 µg/mL

CC1(C)S[C@@H]2[C@H](NC(=O)[C@H](N)c3ccccc3)C(=O)N2[C@H]1C(=O)O [Ampicillin]
MIC (Propionibacterium acnes [1]): 1.0 µg/mL (≈ 2.86 µM)
MIC (S. aureus ATCC 25923): <0.5 µg/mL
MIC (Escherichia coli B 1218): 2.0 µg/mL (≈ 5.72 µM)
MIC [2]: 7.8 µg/mL (≈ 22.3 µM)
MIC [6]: <0.5 µg/mL
MIC (Diphteroides 8264): 31.3 µg/mL (≈ 89.6 µM)
MIC [7]: <0.5 µg/mL
MIC [8]: <0.5 µg/mL
MIC (B. subtilis ATCC 6633): <0.5 µg/mL
MIC (Enterobacter cloacae): 7.8 µg/mL (≈ 22.3 µM)
MIC (Propionibacterium acnes [10]): 1.0 µg/mL (≈ 2.86 µM)
MIC [11]: <0.5 µg/mL
MIC (Staphylococcus capitis): <0.5 µg/mL
MIC [12]: <0.5 µg/mL
MIC (Escherichia coli): 2.0 µg/mL (≈ 5.72 µM)
MIC (S. pyogenes): <0.5 µg/mL
MIC (Streptococcus mitis): 7.8 µg/mL (≈ 22.3 µM)
MIC (Micrococcus spp.): <0.5 µg/mL
MIC (Coryneform(s)): 31.3 µg/mL (≈ 89.6 µM)
MIC [15]: <0.5 µg/mL
MIC (Streptococcus mitis 5728): 7.8 µg/mL (≈ 22.3 µM)
MIC [17]: <0.5 µg/mL
MIC (Micrococcus): <0.5 µg/mL
MIC (S. aureus): <0.5 µg/mL
MIC [18]: <0.5 µg/mL
MIC [20]: <0.5 µg/mL

CN[C@H](CC(C)C)C(=O)N[C@H]1C(=O)N[C@@H](CC(N)=O)C(=O)N[C@H]2C(=O)N[C@H]3C(=O)N[C@H](C(=O)N[C@H](C(=O)O)c4cc(O)cc(O)c4-c4cc3ccc4O)[C@H](O)c3ccc(c(Cl)c3)Oc3cc2cc(c3O[C@@H]2O[C@H](CO)[C@@H](O)[C@H](O)[C@H]2O[C@H]2C[C@](C)(N)[C@H](O)[C@H](C)O2)Oc2ccc(cc2Cl)[C@H]1O [Vancomycin]
MIC Range ([3]; 10 clinical isolates): 0.5 to 2 µg/mL
Ratio of Sensitive/Total ([3]; 10 clinical isolates): 10/10
MIC50 [3]: 1 µg/mL (≈ 0.69 µM)
MIC90 [3]: 1 µg/mL (≈ 0.69 µM)
Ratio of Sensitive/Total [21]: 0/5
MIC50 [4]: 1 µg/mL (≈ 0.69 µM)
MIC90 [4]: 2 µg/mL (≈ 1.38 µM)
MIC Range ([4]; 10 clinical isolates): 1 to 2 µg/mL
Ratio of Sensitive/Total ([4]; 10 clinical isolates): 10/10
MIC Range ([5]; 10 clinical isolates): 0.5 to 1 µg/mL
Ratio of Sensitive/Total ([5]; 10 clinical isolates): 10/10
MIC50 [5]: 1 µg/mL (≈ 0.69 µM)
MIC90 [5]: 1 µg/mL (≈ 0.69 µM)
MIC Range ([9]; 20 clinical isolates): 1 to 4 µg/mL
Ratio of Sensitive/Total ([9]; 20 clinical isolates): 20/20
MIC50 [9]: 1 µg/mL (≈ 0.69 µM)
MIC90 [9]: 2 µg/mL (≈ 1.38 µM)
MIC Range ([13]; 10 clinical isolates): 0.25 to 0.5 µg/mL
Ratio of Sensitive/Total ([13]; 10 clinical isolates): 10/10
MIC50 [13]: 0.5 µg/mL (≈ 0.345 µM)
MIC90 [13]: 0.5 µg/mL (≈ 0.345 µM)
MIC (E. casseliflavus; resistance gene van C1): 16 µg/mL (≈ 11 µM)
MIC (E. casseliflavus; resistance gene van C2): 8 µg/mL (≈ 5.52 µM)
MIC50 [14]: 2 µg/mL (≈ 1.38 µM)
MIC90 [14]: 2 µg/mL (≈ 1.38 µM)
MIC Range ([14]; 10 clinical isolates): 1 to 2 µg/mL
Ratio of Sensitive/Total ([14]; 10 clinical isolates): 10/10
MIC Range ([16]; 10 clinical isolates): 0.25 to 0.5 µg/mL
Ratio of Sensitive/Total ([16]; 10 clinical isolates): 10/10
MIC50 [16]: 0.5 µg/mL (≈ 0.345 µM)
MIC90 [16]: 0.5 µg/mL (≈ 0.345 µM)
MIC Range ([19]; 20 clinical isolates): 0.5 to 1 µg/mL
Ratio of Sensitive/Total ([19]; 20 clinical isolates): 10/20
MIC50 [19]: 0.5 µg/mL (≈ 0.345 µM)
MIC90 [19]: 1 µg/mL (≈ 0.69 µM)

— patent US20140303105A1, “Primycin and components thereof for use in the treatment or prevention of infections caused by specific pathogens” (PANNONPHARMA GYÓGYSZERGYÁRTÓ ZRT., priority 2011, published 2014)
